Earlier results, collected in patent publication US6919088B2 (priority 2002, dated 2005).

Legend:
[1] = tested on: decorin and procollagen-I; details: in vitro testing compared to retinoic acid
[2] = tested on: arachadonic acid in tissue lipids; details: rats, dietary triacylglycerols

For `CCCCCCCCCCC/C=C\CCCCC(=O)O` [petroselinic acid, cis-6-octadecenoic acid], the “upregulating and increasing synthesis of decorin and procollagen-I” value [1] is given as “more effective than retinoic acid” and the “levels of arachadonic acid in tissue lipids” value [2] is given as “reduce the levels of arachadonic acid”.
